Assay results from patent US20150143553A1, “Methods And Compositions Comprising A Drosophila Model Of Amyotrophic Lateral Sclerosis” (priority 2013, published 2015).
Counter-ions that a name gives are not always drawn.

Columns and labels:
Assay type in all cases: in vivo
[1] = system: Drosophila larvae expressing A315T TDP-43 in motor neurons; assay: Drug screen: rescue of lethality caused by A315T TDP-43 expression in motor neurons (D42 Gal4); details: transgene A315T; 50 μM in fly food
Protocol: (§1) 1200 FDA approved drugs from the Prestwick collection were fed to flies expressing TDP-43 at an initial concentration of 50 μM (as previously described in Chang et al., 2008).
(§2) FDA approved drugs from the Prestwick collection (200 mM in DMSO) are mixed with yeast-cornmeal based food and a bromophenol blue (as a mixing indicator) at a final concentration of 50 μM. Larvae expressing TDP-43 (wild type or mutant, as shown) are raised on drug containing food.
(§3) FDA approved drugs from the Prestwick collection (200 mM in DMSO) were mixed with yeast-cornmeal based food and a bromophenol blue (as a mixing indicator) at a final concentration of 50 μM. Larvae expressing TDP-43 (wt or mutant) were raised on drug containing food.
(§4) Using a Drosophila model of ALS based on TDP-43 that recapitulates several aspects of the disease pathophysiology (33, 35), a drug screen aimed at identifying FDA approved compounds with neuroprotective potential in vivo were designed (FIG. 37A). […] This phenotype was used to screen for drug candidates with therapeutic potential as determined by their ability to rescue pupal lethality and produce viable adults with extended wings (FIG. 37A).

[2] = system: Drosophila larvae expressing wild-type TDP-43 in motor neurons; assay: Drug screen: rescue of lethality caused by wild-type TDP-43 expression in motor neurons (D42 Gal4); details: transgene WT2
[3] = system: Drosophila larvae expressing D169G TDP-43 in motor neurons; assay: Drug screen: rescue of lethality caused by D169G TDP-43 expression in motor neurons (D42 Gal4); details: transgene D169G; 30 μM in fly food
[4] = system: Drosophila larvae expressing D169G TDP-43 in motor neurons; assay: as above; details: transgene D169G; 50 μM in fly food
Protocol: as §1, §2, §3, §4

[5] = system: Drosophila larvae expressing G298S TDP-43 in motor neurons; assay: Drug screen: rescue of lethality caused by G298S TDP-43 expression in motor neurons (D42 Gal4); details: transgene G298S
From the text: […] Larvae expressing TDP-43 (wild type or mutant, as shown) are raised on drug containing food.
[…] Larvae expressing TDP-43 (wt or mutant) were raised on drug containing food.
as §4
Larvae expressing TDP-43 in motor neurons (D42>TDP-43) were raised on fly food containing different amounts of drug (1, 10 and 25 μM, see Materials and Methods for details) or Dimethyl Sulfoxide (DMSO) as vehicle control (FIG. 37B, C).
UAS TDP-43 males were crossed with D42-Gal4 female virgins on fly food containing either DMSO or pioglitazone. For DMSO controls, the same volume of DMSO as the corresponding drug concentration was added. Bromophenol blue was added to a final concentration of approximately 0.02% to ensure homogeneity. Crosses were made on drug food with 3 female virgins and 2 males in each vial, and were maintained at 25° C. unless noted. The parents were discarded after 5-7 days then the vials were screened for adult progeny with straight wings from day 14 to day 25. All adults were screened for TDP-43 expression by visualizing the YFP tag. Total number of pupae was counted on day 25. Percent survival was calculated using the formula (total number of straight-winged adults/total number of pupae)×100. All experiments were performed in triplicate.

Q: Which results are given for `CN1CCCN(C(c2ccccc2)c2ccc(Cl)cc2)CC1` (stereo not shown) [Homochlorcyclizine]?
A: Preliminary rescue result: adults with normal wings [1]: 1 Adult Normal Wings Adults; Preliminary rescue result: adults with normal wings ([2]; 50 μM in fly food): 3 Adults Normal Wings,

Q: What does the source list for `OCc1cc(C(O)CNCCCCCCOCCCCc2ccccc2)ccc1O` (stereo not shown) [Salmeterol]?
A: Preliminary rescue result: adults with normal wings ([2]; 30 μM in fly food): 1 Adult Normal Wings × 2 Adults; Preliminary rescue result: adults with normal wings [3]: 1 Adult Normal Wings × 2 Adults

Q: Which “Preliminary rescue result: adults with normal wings” value (“Preliminary rescue result: adults” below) [4] does the source give for `Clc1ccc(Nc2nnc(Cc3ccncc3)c3ccccc23)cc1` [Vatalanib] here?
A: 1 Adult Normal Wings Adults

Q: For `Oc1c(Cl)cc(Cl)c2cccnc12` [Chloroxine], which “Preliminary rescue result: adults” value [4] is on record?
A: 1 Adult Normal Wings Adults

Q: How did the “Preliminary rescue result: adults” value [4] turn out when `CCOC(=O)C(C)(C)Oc1ccc(Cl)cc1` [Clofibrate] was run?
A: 1 Adult Normal Wings Adults

Q: Which “Preliminary rescue result: adults” value [1] does the source give for `CCCCNc1ccc(C(=O)OCCN(C)C)cc1` [Tetracaine Hydrochloride] here?
A: 2 Adult Normal Wings Adults

Q: How did the “Preliminary rescue result: adults” value [1] turn out when `Clc1ccc(C(Cn2ccnc2)OCc2ccsc2Cl)c(Cl)c1` (stereo not shown) [Tioconazole] was run?
A: 2 Adults Normal Wings

Q: With `CCCC(C)C1(CC)C(=O)NC(=O)NC1=O` (stereo not shown) [Pentobarbital] as the molecule, how does the “Preliminary rescue result: adults” value [1] read?
A: 3 Adult Normal Wings Adults

Q: For Tyloxapol, which “Preliminary rescue result: adults” value [3] is on record?
A: 1 Adult Normal Wings Adults

Q: How did the “Preliminary rescue result: adults” value [4] turn out when `CN(C)CCC=C1c2ccccc2C=Cc2ccccc21` [Cyclobenzaprine HCl] was run?
A: 1 Adult Normal Wings Adults

Q: For `Cc1cccc(CN2CCN(C(c3ccccc3)c3ccc(Cl)cc3)CC2)c1` (stereo not shown) [Meclozine Dihcl], which “Preliminary rescue result: adults” value [4] is on record?
A: 6 Adults Normal Wings

Q: With `CN1CCN(c2c(F)cc3c(=O)c(C(=O)O)cn(CCF)c3c2F)CC1` [Fleroxacin] as the molecule, how does the “Preliminary rescue result: adults” value ([2]; 30 μM in fly food) read?
A: 3 Adults

Q: And the “Preliminary rescue result: adults” value ([5]; 30 μM in fly food)?
A: 1 Adults

Q: What does the source list for `CCCN(CCC)C(=O)C(CCC(=O)O)NC(=O)c1ccccc1` (stereo not shown) [Proglumide]?
A: Preliminary rescue result: adults with normal wings ([2]; 50 μM in fly food): 1 Adult Normal Wings, Adults; Preliminary rescue result: adults with normal wings ([5]; 50 μM in fly food): 3 Adults Normal Wings

Q: How did the “Preliminary rescue result: adults” value ([2]; 30 μM in fly food) turn out when `N#CC(c1ccc(Cl)cc1)c1c(Cl)cc(-n2ncc(=O)[nH]c2=O)cc1Cl` (stereo not shown) [Diclazuril] was run?
A: 2 Adults

Q: And the “Preliminary rescue result: adults” value ([5]; 30 μM in fly food)?
A: 1 Adults

Q: How did the “Preliminary rescue result: adults” value [4] turn out when `C[C@]12Cc3c[nH]nc3C[C@@H]1CC[C@@H]1[C@@H]2CC[C@@]2(C)[C@H]1CC[C@]2(C)O` [Stanozolol] was run?
A: 3 Adult Normal Wings Adults

Q: With `CC[C@@H](C(N)=O)N1CCCC1=O` [Levetiracetam] as the molecule, how does the “Preliminary rescue result: adults” value [1] read?
A: 3 Adult Normal Wings Adults

Q: With `CC(=O)NCCCS(=O)(=O)[O-].CC(=O)NCCCS(=O)(=O)[O-].[Ca+2]` [Acamprosate Calcium] as the molecule, how does the “Preliminary rescue result: adults” value [4] read?
A: 1 Adult Normal Wings Adults

Q: For `CC(C)NC[C@@H](O)COc1ccc(CC(N)=O)cc1` [R-(+)-Atenolol], which “Preliminary rescue result: adults” value ([2]; 30 μM in fly food) is on record?
A: 2 Adults

Q: What about the “Preliminary rescue result: adults” value [3] of the same molecule?
A: 1 Adults

Q: `COc1ccc(-c2ccc(=N)n(CCCC(=O)O)n2)cc1` [Gabazine] was tested. Which “Preliminary rescue result: adults” value ([2]; 50 μM in fly food) did it give?
A: 4 Adults Normal Wings,

Q: What about the “Preliminary rescue result: adults” value ([5]; 50 μM in fly food) of the same molecule?
A: 2 Adults Straight Wings

Q: Which results are given for `CC(=O)N[C@@H](CS)C(=O)O` [Acetylcysteine]?
A: Preliminary rescue result: adults with normal wings ([5]; 30 μM in fly food): 1 Adults; Preliminary rescue result: adults with normal wings [3]: 1 Adults
